This is an account of results in patent US20240317777A1, “NOVEL MACROCYCLIC AMINOPYRAZOLE COMPOUNDS AS CDK2 INHIBITORS” (Accutar Biotechnology Inc., priority 2023, published 2024).

The conditions of series [1]: the molecule shown is the open-chain precursor, other bond.
The conditions of series [2]: the molecule shown is the open-chain precursor, other bond, 18-membered ring, DIEA, THF.
The conditions of series [3]: the molecule shown is the open-chain precursor; other bond; 18-membered ring; DIEA; THF; 1.83 mM; 80.0 °C.
For series [4] the following is noted: other bond, DIEA.

Read-outs that look alike come from different tables or passages of the source.

In the case of `CC(CC12CC(N)(C1)C2)Oc1cc(Nc2cc([C@H]3CC[C@@H](OC(=O)Oc4ccc([N+](=O)[O-])cc4)C3)nn2C(C)(C)C)cc(C(F)F)n1` (some centres unmarked), the ring closure, isolated yield in series [1] (19-membered ring, DIEA, THF, 9.15 mM, 80.0 °C) was 84.7%.

As for `CC(OCCCN)c1cc(Nc2cc([C@H]3CC[C@@H](OC(=O)Oc4ccc([N+](=O)[O-])cc4)C3)nn2C(C)(C)C)ccn1` (some centres unmarked), in series [2] (6.34 mM, 100.0 °C), the ring closure, crude yield came out at 87.5%.

Take `C[C@H](N)C(F)CCOc1cc(Nc2cc([C@H]3CC[C@@H](OC(=O)Oc4ccc([N+](=O)[O-])cc4)C3)nn2C(C)(C)C)ccn1` (some centres unmarked): the ring closure, isolated yield in series [1] (18-membered ring, DIEA, DMSO, 1.71 mM, 100.0 °C) amounted to 97%.

In series [1] (18-membered ring, DIEA/DMAP, THF, 1.81 mM, 50.0 °C), `CC(C)(N)CCCOc1cc(Nc2cc([C@H]3CC[C@@H](OC(=O)Oc4ccc([N+](=O)[O-])cc4)C3)nn2C(C)(C)C)ccn1` had a ring closure, isolated yield of 88.8%.

Compound `CC(C)(C)n1nc([C@H]2CC[C@@H](OC(=O)Oc3ccc([N+](=O)[O-])cc3)C2)cc1Nc1cncc(OCC2CC(N)C2)n1` (some centres unmarked) came in with a ring closure, isolated yield in series [1] (18-membered ring, DIEA, DMSO, 2.3 mM, 100.0 °C) of 38%.

Compound `C[C@H](N)CCCOc1cc(Nc2cc([C@H]3CC[C@@H](OC(=O)Oc4ccc([N+](=O)[O-])cc4)C3)nn2C(C)(C)C)c(F)cn1` had a ring closure, crude yield in series [2] (1.71 mM, 25.0 °C) of 99.9%.

In series [1] (18-membered ring, DIEA, THF, 2.01 mM, 25.0 °C), `CC(C)(C)n1nc([C@H]2CC[C@@H](OC(=O)Oc3ccc([N+](=O)[O-])cc3)C2)cc1Nc1cncc(OCCCCN)c1` registered a ring closure, isolated yield of 49.3%.

In the case of `C[C@@H](N)CCCCc1cc(Nc2cc([C@H]3CC[C@@H](OC(=O)Oc4ccc([N+](=O)[O-])cc4)C3)nn2C(C)(C)C)ccn1`, the ring closure, isolated yield in series [1] (18-membered ring, DIEA, THF, 1.42 mM, 100.0 °C) was 99.5%.

Take `C[C@H](N)CCCCc1cc(Nc2cc([C@H]3CC[C@@H](OC(=O)Oc4ccc([N+](=O)[O-])cc4)C3)nn2C(C)(C)C)ccn1`: the ring closure, crude yield in series [2] (0.92 mM, 20.0 °C) was found to be 91.9%.

Consider `C[C@H](N)CC(F)(F)COc1cc(Nc2cc([C@H]3CC[C@@H](OC(=O)Oc4ccc([N+](=O)[O-])cc4)C3)nn2C(C)(C)C)ccn1`, for which the ring closure, yield after HPLC in series [3] worked out at 66.2%.

Compound `CC(N)CCCOc1cc(Nc2cc([C@H]3CC[C@@H](OC(=O)Oc4ccc([N+](=O)[O-])cc4)C3)nn2C(C)(C)C)ccn1` (some centres unmarked) yielded a ring closure, isolated yield in series [1] (18-membered ring, DIEA, THF, 2.06 mM, 30.0 °C) of 98.5%.

In the case of `CC(C)(C)n1nc([C@H]2CC[C@@H](OC(=O)Oc3ccc([N+](=O)[O-])cc3)C2)cc1Nc1cc(OCCCCN)nc(C(F)F)c1`, in series [1] (18-membered ring, DIEA, THF, 1.11 mM, 25.0 °C), the ring closure, isolated yield came out at 65%.

In series [1] (18-membered ring, DIEA, THF, 3.27 mM, 30.0 °C), `CC(C)(C)n1nc([C@H]2CC[C@@H](OC(=O)Oc3ccc([N+](=O)[O-])cc3)C2)cc1Nc1cc(CCCCCN)nc(C(F)F)c1` returned a ring closure, isolated yield of 44.1%.

In turn, `CC(C)(C)n1nc([C@H]2CC[C@@H](OC(=O)Oc3ccc([N+](=O)[O-])cc3)C2)cc1Nc1ccnc(OCC2CC(N)C2)c1` (some centres unmarked) registered a ring closure, crude yield in series [2] (1.21 mM, 70.0 °C) of 96.7%.

Consider `C[C@H](N)CCO[C@@H](C)c1cc(Nc2cc([C@H]3CC[C@@H](OC(=O)Oc4ccc([N+](=O)[O-])cc4)C3)nn2C(C)(C)C)ccn1`, for which the ring closure, crude yield in series [2] (0.55 mM, 25.0 °C) stood at 86.5%.

In series [4] (from CC(C)(C)n1nc([C@H]2C[C@@H](F)[C@@H](OC(=O)Oc3ccc([N+](=O)[O-])cc3)C2)cc1Nc1ccnc(OC[C@H]2C[C@H](N)C2)c1, THF, 1.7 mM, 60.0 °C, 12.0 h), `CC(C)(C)n1nc2cc1Nc1ccnc(c1)OC[C@H]1C[C@@H](C1)NC(=O)O[C@H]1C[C@@H]2C[C@H]1F` yielded a ring closure, yield of all isomers of 37%.

In series [1] (18-membered ring, DIEA, DMSO, 1.79 mM, 80.0 °C), `C[C@H](N)CCCOc1nccc(Nc2cc([C@H]3CC[C@@H](OC(=O)Oc4ccc([N+](=O)[O-])cc4)C3)nn2C(C)(C)C)n1` returned a ring closure, isolated yield of 93%.

The compound `C[C@H](N)C(F)(F)CCOc1cc(Nc2cc([C@H]3C[C@@H](F)[C@@H](OC(=O)Oc4ccc([N+](=O)[O-])cc4)C3)nn2C(C)(C)C)ccn1` showed a ring closure, isolated yield in series [1] (18-membered ring, DIEA, DMSO, 3.13 mM, 100.0 °C) of 88%.

In turn, `CC(C)(C)n1nc([C@H]2C[C@@H](F)[C@@H](OC(=O)Oc3ccc([N+](=O)[O-])cc3)C2)cc1Nc1ccnc(OCC2CC(N)C2)c1` (some centres unmarked) gave a ring closure, isolated yield in series [1] (18-membered ring, DIEA, THF, 1.7 mM, 60.0 °C) of 37%.

In turn, `C[C@H](N)CCCOc1cc(Nc2cc([C@H]3CC[C@@H](OC(=O)Oc4ccc([N+](=O)[O-])cc4)C3)nn2C(C)(C)C)cc(F)n1` had a ring closure, crude yield in series [2] (1.71 mM, 25.0 °C) of 97.8%.

In series [1] (18-membered ring, DIEA, THF, 3.53 mM, 50.0 °C), `C[C@H](N)CCCOc1cc(Nc2cc([C@H]3CC[C@@H](OC(=O)Oc4ccc([N+](=O)[O-])cc4)C3)nn2C(C)(C)C)ccn1` came in with a ring closure, isolated yield of 84.8%.

In series [4] (from C[C@H](N)CCCCc1cc(Nc2cc([C@H]3CC[C@@H](OC(=O)Oc4ccc([N+](=O)[O-])cc4)C3)nn2C(C)(C)C)ccn1, THF, 0.92 mM, 20.0 °C, 4.0 h), `C[C@H]1CCCCc2cc(ccn2)Nc2cc(nn2C(C)(C)C)[C@H]2CC[C@H](C2)OC(=O)N1` displayed a ring closure, yield of all isomers of 91.9%.

In series [1] (18-membered ring, DIEA, THF, 1.46 mM, 70.0 °C), `C[C@@H](N)CC/C=C/c1cc(Nc2cc([C@H]3CC[C@@H](OC(=O)Oc4ccc([N+](=O)[O-])cc4)C3)nn2C(C)(C)C)ccn1` registered a ring closure, isolated yield of 98.6%.

In turn, `C[C@@H]1NC(=O)O[C@@H]2CC[C@@H](C2)c2cc(n(C(C)(C)C)n2)Nc2ccnc(c2)OCCC1(F)F` displayed a ring closure, yield of all isomers in series [4] (from C[C@H](N)C(F)(F)CCOc1cc(Nc2cc([C@H]3CC[C@@H](OC(=O)Oc4ccc([N+](=O)[O-])cc4)C3)nn2C(C)(C)C)ccn1, DMSO, 1.15 mM, 100.0 °C, 16.0 h) of 87.3%.

Compound `C[C@H]1CC/C=C/c2cc(ccn2)Nc2cc(nn2C(C)(C)C)[C@H]2CC[C@H](C2)OC(=O)N1` registered a ring closure, yield of all isomers in series [4] (from C[C@H](N)CC/C=C/c1cc(Nc2cc([C@H]3CC[C@@H](OC(=O)Oc4ccc([N+](=O)[O-])cc4)C3)nn2C(C)(C)C)ccn1, THF, 1.6 mM, 60.0 °C, 2.0 h) of 93.9%.

In series [4] (from C[C@H](N)CCO[C@H](C)c1cc(Nc2cc([C@H]3CC[C@@H](OC(=O)Oc4ccc([N+](=O)[O-])cc4)C3)nn2C(C)(C)C)ccn1, THF, 0.86 mM, 25.0 °C, 12.0 h), `C[C@H]1CCO[C@H](C)c2cc(ccn2)Nc2cc(nn2C(C)(C)C)[C@H]2CC[C@H](C2)OC(=O)N1` yielded a ring closure, yield of all isomers of 92.1%.
